In article PMC13313556, “Development and characterization of triazole-based WDR5 inhibitors for the treatment of glioblastoma” (JCI Insight, 2026):
Where two headings read alike, the source gives them in different places.

Columns and labels:
L0 CSCs = test: Extreme limiting dilution assay (ELDA) in L0; assay type: cell-based, human; conditions: 14 days
Procedure: (§1) L0 and DI318 CSCs were split with Accutase as single cells into NBMc. In total, 200 μL of CSCs were seeded into each well of a 96-well TC treated plate (n = 10 well per density) at 50, 25, 13, 6, 3, and 1.5 cells/well. […] The stem cell frequency was quantified and treatments were compared with DMSO as described by Hu and Smyth ([98]).

WDR5-target genes = test: RT-qPCR of WDR5-target genes in frozen DI318 flank tumor samples; assay type: in vivo, NSG mice; conditions: 30 mg/kg once a day i.p. over 7 days
DI318 flank PDX tumors [1] = test: DI318 flank xenograft, tumor volume; assay type: in vivo, NSG mice; conditions: 30 mg/kg once a day i.p. over 7 days
Procedure: (A) NOD-scid (NSG) mice were inoculated subcutaneously in the right flank with 2 × 10⁶ DI318 CSCs suspended in 100 μL of PBS:Matrigel (1:1). Over the next 6-7 days tumors developed to the point where a small mass was visual. A digital caliper measurement (length and width) were taken to get a baseline tumor size. Mice
Compounds were formulated in 20% HP β-cyclodextrin (BCD) and administered once daily via IP injection at 30 mg/kg for 7 consecutive days.
Endpoint ellipsoid tumor volume was calculated and compared using a t-test.

DI318 flank PDX tumors [2] = test: ELDA of cells dissociated from DI318 flank tumors; assay type: in vivo, NSG mice; conditions: 30 mg/kg once a day i.p. over 7 days
Procedure: as §1
(1 picture or pasted object on this page, not shown here)

[3] = system: WIN-site dependent transcripts; test: Bulk RNA-seq in L0 and DI318 CSCs; assay type: cell-based, human; conditions: for GSEA NES against MV4:11 C16-regulated gene set: 72 hours
Procedure: Bulk RNA-seq was performed at MedGenome Inc. using the Illumina Stranded mRNA Library Prep Kit and sequencing at 20M paired-end read-depth on a NovaSeq 6000 (PE100). The raw bulk RNA-seq paired end (R1-R2, 2 × 100 bp) sequencing fastq data was first subjected to the quality check analysis using FastQC (v0.11.9). […] Further, quality filtered reads were subjected to the alignment employing Rsubread (v2.16.1) align function with human genome reference build GRCh38 ([90], [91]). The mapped binary alignment map (BAM) files were indexed using samtools (v1.16.1) ([92]), and gene-wise read counts were summarized applying featureCounts function from Rsubread, where inbuilt hg38 annotation was used and duplicated reads were ignored. Furthermore, gene symbols were obtained using org.Hs.eg.db (v3.15.0) annotation package operating on ENTREZIDs from count table. Respectively, edgeR (v3.38.4) and limma-voom (v3.52.4) packages were employed to accomplish differential transcriptional regulation analysis ([93]–[95]). Briefly, constructed DGEList object (DGEList function), design matrix (model.design), and contrast matrix (makeContrasts) was defined, filtered low counts (filterByExpr), and trimmed mean of M-values (TMM) normalization (calcNormFactors) was done. Later, log2 counts per million reads (logCPM) transformation, model fitting and differential expression analysis was performed using limma-voom (voomWithQualityWeights, lmFit, contrasts.fit), empirical Bayes moderated t-statistics (eBayes), and TREAT method (treat, decideTests, topTreat) considering log fold-change (logFC) (0.5) threshold. Genes with |log2FC| > 0.5 and FDR adjusted P value cutoff (≤0.01) were considered as differentially expressed genes (DEGs). Gene ontology (GO) and pathway enrichment analysis was accomplished implementing ShinyGO (v0.77) ([96]). DEGs volcano plots were depicted utilizing EnhancedVolcano (v1.16.0) package.

[4] = system: RPS24, PYGL, CKMT1, SALL2, NID2, PYGB, RPL14 transcripts; test: RT-qPCR of WDR5-target genes in patient-derived CSCs (L0, L1, L2, DI318, 3832); assay type: cell-based, human; conditions: 72 hours
Procedure: Cells were harvested by centrifugation (5 minutes, 500g) into 2 mL Eppendorf Tubes and total RNA was purified on spin columns using the RNeasy Plus Kit (Qiagen, includes gDNA removal columns). In total, 2.5 μg of total RNA was treated with ezDNAse (Thermo Fisher) and then reverse transcribed with the SuperScript IV VILO RT Master Mix (Invitrogen). cDNA was diluted 1:100 in nuclease-free water and then transcripts were quantified using the PowerUp SYBR Green Master Mix (Thermo Fisher) on a QuantStudio 3 qPCR machine according to the manufacturer’s recommendations. Primer sets are provided in the Supporting Information. Raw Cq values were normalized per sample to the housekeeper ACTB and then the fold-change relative to DMSO treated cells was calculated as FC = 2^–ΔΔCq.

Brain homogenate binding = assay type: in vitro ADME; conditions: human brain homogenate; read-out: BHB %fu (h)
Procedure: both the protein side and buffer side of the membrane after incubation and the parent compound was quantified. Brain homogenate binding was performed similarly as above using human brain homogenate, equilibrium dialysis, and LC-MS/MS methods. Fraction unbound is calculated by dividing the concentration of the buffer side by the concentration of the matrix side (plasma or brain). […]

P-glycoprotein (MDR1) = biological target: T1, P-glycoprotein (MDR1) (Homo sapiens, UniProt P08183); test: MDR1-MDCK permeability and efflux; assay type: in vitro ADME; conditions: for Papp A→B at 120 min, 5 μM / Papp B→A at 120 min, 5 μM / recovery at 120 min, 5 μM: dog, MDCK-MDR1, pH 7.4, 5 μM
T1 construct: host or cells: MDR1-MDCK cell monolayers
T1 sequence (P08183 whole entry): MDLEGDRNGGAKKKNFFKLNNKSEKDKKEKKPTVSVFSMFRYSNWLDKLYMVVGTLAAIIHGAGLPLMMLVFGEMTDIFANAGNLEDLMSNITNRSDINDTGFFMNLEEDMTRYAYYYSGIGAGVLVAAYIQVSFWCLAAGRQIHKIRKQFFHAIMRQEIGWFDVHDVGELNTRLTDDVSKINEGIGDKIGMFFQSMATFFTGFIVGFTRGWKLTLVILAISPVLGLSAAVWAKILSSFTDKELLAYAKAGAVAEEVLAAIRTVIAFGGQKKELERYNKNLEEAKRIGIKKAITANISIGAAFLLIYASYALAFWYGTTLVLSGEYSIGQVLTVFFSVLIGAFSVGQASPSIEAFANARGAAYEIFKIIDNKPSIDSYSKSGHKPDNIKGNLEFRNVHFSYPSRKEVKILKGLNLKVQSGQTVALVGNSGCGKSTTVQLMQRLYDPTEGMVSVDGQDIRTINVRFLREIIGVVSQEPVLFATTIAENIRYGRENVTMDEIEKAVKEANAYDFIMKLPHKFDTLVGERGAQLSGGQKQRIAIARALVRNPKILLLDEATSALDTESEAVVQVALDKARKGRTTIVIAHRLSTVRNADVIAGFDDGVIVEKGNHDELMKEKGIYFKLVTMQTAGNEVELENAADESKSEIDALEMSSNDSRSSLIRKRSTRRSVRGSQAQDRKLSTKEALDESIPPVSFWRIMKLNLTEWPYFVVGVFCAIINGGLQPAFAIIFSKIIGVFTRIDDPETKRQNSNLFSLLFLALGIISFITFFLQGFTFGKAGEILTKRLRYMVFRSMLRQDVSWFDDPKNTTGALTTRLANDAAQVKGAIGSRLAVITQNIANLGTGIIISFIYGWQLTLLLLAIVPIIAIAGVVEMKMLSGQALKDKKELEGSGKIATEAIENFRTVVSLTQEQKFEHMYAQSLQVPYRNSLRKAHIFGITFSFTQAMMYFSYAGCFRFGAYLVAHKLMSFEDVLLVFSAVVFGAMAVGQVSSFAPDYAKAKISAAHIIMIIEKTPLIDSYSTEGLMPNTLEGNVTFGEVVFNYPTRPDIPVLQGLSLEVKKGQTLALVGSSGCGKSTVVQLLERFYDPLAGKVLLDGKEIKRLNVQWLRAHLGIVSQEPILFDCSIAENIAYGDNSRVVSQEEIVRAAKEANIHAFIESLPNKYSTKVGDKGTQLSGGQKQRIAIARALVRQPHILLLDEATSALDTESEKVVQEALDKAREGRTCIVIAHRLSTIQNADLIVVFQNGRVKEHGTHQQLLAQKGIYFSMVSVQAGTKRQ
Procedure: Test Direction Recovery Papp (10-6 cm/s) Efflux Brain
Article (%) R1 R2 AVG Ratio Penetration
Supplemental Figure 4. Blood-brain barrier (BBB) penetration potential using MDR1-MDCK cell monolayers. All P-glycoprotein (MDR1) permeability and efflux studies were conducted at Absorption Systems (parent company Pharmaron). In brief, MDR1-MDCK monolayers were grown to confluence on collagen-coated, microporous membranes in 12-well assay plates. The permeability assay buffer was Hanks’ balanced salt solution containing 10 mM HEPES and 15 mM glucose at a pH of 7.4. The buffer in the receiver chamber also contained 1% bovine serum albumin. The dosing solution concentration was 5 μM of test article in the assay buffer. Cell monolayers were dosed on the apical side (A-to-B) or basolateral side (B-to-A) and incubated at 37°C with 5% CO2 in a humidified incubator. Samples were taken from the donor and receiver chambers after 120 minutes. Each determination was performed in duplicate. The flux of lucifer yellow was also measured post-experimentally for each monolayer to ensure no damage was inflicted to the cell monolayers during the flux period. All samples were assayed by LC-MS/MS using electrospray ionization. Efflux ratio (ER) is defined as Papp (B-to-A) / Papp […]

In situ brain perfusion = assay type: in vivo, mice; conditions: 2-minute perfusion, 10 μM
Procedure: To evaluate the permeability across the blood-brain barrier of WDR5 inhibitors in the absence of hepatic clearance, we utilized the in situ brain perfusion technique. Mice were anesthetized via i.p. injection of 100 mg/kg ketamine and 80 mg/kg xylazine. The peritoneal cavity was exposed, the descending aorta was clamped, and the right atrium was cut to prevent venous return to the heart. A 28G butterfly winged infusion catheter (Terumo Medical Care Solutions) was inserted into the left ventricle and mice were perfused with a modified physiological buffer containing 10 μM WDR5 inhibitor ([99]). […] To determine brain uptake of WDR5 inhibitors, mice were perfused for 120 seconds. The experiment was concluded by decapitation of the mouse. Following termination, the brain was rapidly removed and placed on ice. Inhibitor concentration in both brain and blood was determined by liquid chromatography tandem mass spectroscopy (Q2 Solutions). The unidirectional uptake transfer constant (Kin) was calculated by the following relationship ([100]):
Where Qbr is the concentration of WDR5 inhibitor in brain (ng/g) corrected for residual inhibitor remaining in cerebrovasculature at the end of the perfusion time frame, Cpf is the perfusion fluid concentration of WDR5 inhibitor (ng/mL), T is the time length of the perfusion experiment, and V0 is the vascular volume of the WDR5 inhibitor (mL/g).

WDR5 = WDR5 (Homo sapiens, UniProt P61964); set-up: human WDR5 residues Ser22-Cys334 were codon optimized for E. coli; made in house; host or cells: E. coli T7 Express lysY/Iq (New England Biolabs), pET27 plasmid; conditions: read-out: direct WDR5 Ki; cited from earlier work

SMILES | fraction unbound at […] (Brain homogenate binding) | Brain Penetration Classification (P-glycoprotein (MDR1)) | Papp A→B at 120 min, 5 μM (P-glycoprotein (MDR1); read-out: Papp A-to-B, AVG) [×10⁻⁶ cm/s] | Papp A→B at 120 min, 5 μM (P-glycoprotein (MDR1); read-out: Papp A-to-B, R1) [×10⁻⁶ cm/s] | Papp A→B at 120 min, 5 μM (P-glycoprotein (MDR1); read-out: Papp A-to-B, R2) [×10⁻⁶ cm/s] | Papp B→A at 120 min, 5 μM (P-glycoprotein (MDR1); read-out: Papp B-to-A, AVG) [×10⁻⁶ cm/s] | Papp B→A at 120 min, 5 μM (P-glycoprotein (MDR1); read-out: Papp B-to-A, R1) [×10⁻⁶ cm/s] | Papp B→A at 120 min, 5 μM (P-glycoprotein (MDR1); read-out: Papp B-to-A, R2) [×10⁻⁶ cm/s] | recovery at 120 min, 5 μM (P-glycoprotein (MDR1); read-out: Recovery, A-to-B) [%] | recovery at 120 min, 5 μM (P-glycoprotein (MDR1); read-out: Recovery, B-to-A) [%] | unidirectional brain uptake constant Kin (In situ brain perfusion) | also measured
COc1cc(Cn2nnc3c2CCc2c(-c4cn(C)nc4C(F)(F)F)cc(Cn4ccnc4C)cc2-3)cc(OC)c1 [C3TD078] | 0.004 |  |  |  |  |  |  |  |  |  |  | L0 ELDA stem cell frequency (1 in N) (L0 CSCs; 20 nM): 1.3; L0 ELDA stem cell frequency (1 in N) (L0 CSCs; 200 nM): 2.2; L0 ELDA stem cell frequency (1 in N) (L0 CSCs; 2000 nM): 2.1; downregulation of WDR5-target genes in treated tumors (WDR5-target genes): did not downregulate WDR5-target genes in treated tumors; effect on tumor growth (DI318 flank PDX tumors [1]): did not reduce tumor growth; effect on stem cell frequency of treated tumors (DI318 flank PDX tumors [2]): did not reduce tumor growth or affect stem cell frequency; C16 DEGs also downregulated by C3TD078 ([3]; DI318, 200 nM, 72 hours (118/150)): 79%; C16 DEGs also downregulated by C3TD078 ([3]; L0, 200 nM, 72 hours (91/102)): 89%; IC50 ([4]; Homo sapiens, L0 and DI318, 5 genes, read-out: average IC50 of transcriptional downregulation (qPCR)): 80 nM; PYGB expression log2FC ([4]; L0, L2, DI318, 3832, 200 nM): < 1.0; PYGL and CKMT1 downregulation ([4]; all 5 CSC models, 200 nM): ~ 4 fold; RPL14 expression ([4]; all 5 CSC models, 200 nM): unaffected; RPS24 downregulation ([4]; all 5 CSC models, 200 nM): ~ 2 fold
COc1cc(Cn2nnc3c2CCc2c-3cc(Cn3ccnc3C)cc2C2CC2)ccc1F [C3TD343] | 0.005 | Low | 0.113 | 0.131 | 0.0949 | 43.3 | 40.2 | 46.3 | 71.2 | 76.8 | > 50 × 10^–4 mL/s/g | efflux by P-glycoprotein (P-glycoprotein (MDR1); MDR1-MDCK permeability studies): strongly effluxed
COc1cc(CN2CCc3c(cc(Cn4ccn(C)c4=N)cc3-c3ccc(F)cc3C)C2=O)cc(OC)c1 [C16, reference compound] |  | Low | 0.715 | 0.556 | 0.875 | 1.7 | 1.49 | 1.91 | 85.6 | 87.3 | < 5 × 10^–4 mL/s/g | GSEA NES against MV4:11 C16-regulated gene set ([3]; DI318, 200 nM): –2.5; GSEA NES against MV4:11 C16-regulated gene set ([3]; L0, 200 nM): –2.0; Ki (WDR5): < 0.02 nM
